From patent publication EP4570805A1, “TRICYCLIC COMPOUNDS AND MEDICAL USE THEREOF” (Chia Tai Tianqing Pharmaceutical Group Co., Ltd., priority 2022, dated 2024)

How the values were obtained:
His-KRAS G12D (1-169) = molecular target: T1, His-KRAS G12D (1-169) (Homo sapiens, UniProt P01116, G12D); test: Nucleotide exchange assay (SOS1cat-mediated, HTRF); format: biochemical; conditions: room temperature, read-out: Nucleotide exchange inhibitory activity IC50
T1 construct: His-KRAS G12D (1-169)
Procedure: • 1. Reagents: His-KRAS G12D (1-169); SOS1^cat (564-1049); GDP (purchased from Sigma); Anti-6HIS-Cryptate (purchased from Cisbio); EDA-GTP-DY-647P1 (purchased from Jena Bioscience) • 2. Buffer preparation: • 1) assay buffer: HEPES pH 7.4, NaCl, MgCl2, DTT, BSA, and Igepal; • 2) KRAS G12D working solution: A KRAS G12D working solution containing 100 nM His-KRAS G12D and 2 nM Anti-6HIS-Cryptate was prepared using the assay buffer; • 3) SOS1^cat working solution: An SOS1^cat working solution containing 20 nM SOS1^cat and 200 nM EDA-GTP-DY-647P1 was prepared using the assay buffer; • 4) blank control working solution: A blank control solution containing 2 nM Anti-6HIS-Cryptate was prepared using the assay buffer. • 3. Testing procedure: The entire experimental process was completed at room temperature. Using a black clear-bottom 384-well plate, 5 µL of KRAS G12D working solution was added to each well for the experimental and negative groups, while 5 µL of blank control working solution was added to each well for the blank group. The plate was incubated at room temperature for 10 min. Then, the compounds (at an initial concentration of 100 µM, 8 concentration gradients by 1:2 serial dilution) were added to the experimental groups using an ultra microsyringe and incubated at room temperature for 30 min. Finally, 5 µL of SOS1^cat working solution was added to each well, and after incubation at room temperature for 15 min, signal values were detected at 665 nm/620 nm using a PerkinElmer Envision HTS multi-label plate reader. The inhibition rate was calculated by the following formula: inhibition rate (%) = (mean value of negative control group - mean value of experimental group)/(mean value of negative control group - mean value of blank group) × 100%. The curves were fitted using the four-parameter logistic model with the logarithm of the compound concentration as the abscissa and the inhibition rate as the ordinate, and IC 50 values were calculated.

Capan-1 cells = test: Inhibitory activity for Capan-1 cell proliferation (CCK-8); format: cell-based; conditions: 5 days incubation
Method in brief: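 Capan-1 cells were seeded at 1.5 × 10^4 cells/mL and exposed to compound for 5 days. CCK-8 was added for 4 h, with absorbance read at 450 nm. IC50 came from a four-parameter dose-response fit.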

[1] = In vitro liver microsomal stability, mouse; conditions: mouse liver microsome 0.5 mg/mL, 37 °C
Procedure: Liver microsome incubation samples (species: human, monkey, rat, and mouse) were prepared by mixing a PBS buffer (pH 7.4), a liver microsome solution (0.5 mg/mL), a test compound, and an NADPH + MgCl2 solution and incubated at 37 °C and 300 rpm for 1 h. Zero-hour samples were prepared by mixing a PBS buffer (pH 7.4), a liver microsome solution (0.5 mg/mL), and a test compound. An acetonitrile solution containing an internal standard was added to the samples, and the supernatants were prepared by protein precipitation, diluted, and then assayed by LC/MS/MS.

AsPc-1 cells = test: Inhibitory activity for AsPc-1 cell proliferation (CCK-8); format: cell-based, human
Procedure: AsPc-1 cells in a well-growing state were collected into a centrifuge tube, adjusted to a cell density of 3 × 10^4 cells/mL, and inoculated onto a 96-well plate (100 µL/well). The compounds were added using a nanoliter pipettor such that the final concentrations of the compounds were 5000 nM-0.31 nM (the addition was performed in duplicate). Meanwhile, a control was set. After 72 h of incubation in the cell incubator, the assay reagent CCK-8 (manufacturer: Dojindo Laboratories; 10 µL/well) was added. After 3 h of incubation in the cell incubator, the absorbance was measured at 450 nm on a PerkinElmer Envision microplate reader. A four-parameter analysis was performed, a dose-response curve was fitted, and IC50 was calculated.

[2] = In vivo pharmacokinetics in mice; conditions: mouse, in vivo, po, ICR mice, IG, 10 mg/kg; for MRT last: read-out: MRT(0-t)
Procedure: ICR mice weighing 20 g to 24 g were randomized into groups with 9 mice in each group after 3 to 5 days of acclimatization, and intragastric administration of the experimental compounds was performed at a dose of 10 mg/kg.
The test animals (ICR mice) were fasted for 12 h before administration and fed 4 h after administration, and were given free access to water before, after, and during the experiment.
After intragastric administration, about 0.1 mL of blood was collected via the orbital sinus at 0.25 h (15 min), 0.5 h (30 min), 1 h, 2 h, 4 h, 6 h, 8 h, and 10 h (each mouse was subjected to blood collection at 3 to 4 time points, with 3 mice per time point). Following anticoagulation with EDTA-K2, the blood samples were transferred to a centrifuge within 30 min and then centrifuged at 4000 rpm for 10 min at 4 °C to separate the plasma. All the plasma samples were collected and immediately stored at -20 °C for testing.
20 µL of the plasma sample to be tested and the standard curve sample were pipetted, and 400 µL of acetonitrile solution containing an internal standard (20 ng/mL) was added. The mixture was shaken and mixed well for 10 min, and centrifuged at 13000 rpm for 10 min. 50 µL of the supernatant was taken and diluted with 100 µL of ultrapure water. After being mixed well, 0.5 µL of the resulting sample was subjected to LC/MS/MS, and a chromatogram was recorded.
Oral exposure of the compounds of the present disclosure was evaluated by in vivo pharmacokinetic experiments in mice.

[3] = Homo sapiens, ASPC1, 72 h incubation

T1 sequence (P01116 1-169 isoform P01116-2 G12D): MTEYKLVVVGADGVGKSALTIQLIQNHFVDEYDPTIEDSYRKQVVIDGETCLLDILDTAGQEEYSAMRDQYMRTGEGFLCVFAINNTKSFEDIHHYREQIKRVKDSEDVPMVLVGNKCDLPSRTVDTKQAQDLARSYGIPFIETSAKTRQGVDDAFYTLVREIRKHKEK

| Structure (SMILES) | IC50 (His-KRAS G12D (1-169)) [nM] | IC50 (Capan-1 cells; Homo sapiens, CAPAN-1, 120 h) [nM] | further results |
| --- | --- | --- | --- |
| C#Cc1c(F)ccc2cc(O)cc(-c3nc4c5c(nc(OC[C@@]67CCCN6C[C@H](F)C7)nc5c3F)N(C[C@H](C)N(C)C)CCO4)c12 [Example 25] | ≤ 100 | – | – |
| C#Cc1c(F)ccc2cc(O)cc(-c3nc4c5c(nc(OCC67CCCN6CC(F)C7)nc5c3F)N(CC3(N(C)C)CC3)CCO4)c12 (stereo not shown) [Example 22] | ≤ 100 | – | – |
| C#Cc1c(F)ccc2cc(O)cc(-c3nc4c5c(nc(OC[C@@]67CCCN6C[C@H](F)C7)nc5c3F)N(C3CC(N)C3)CCO4)c12 (stereo partly shown) [Example 17] | ≤ 100 | – | – |
| C#Cc1c(F)ccc2cc(O)cc(-c3nc4c5c(nc(OCC67CCCN6CC(F)C7)nc5c3F)N(C3CCC(N(C)C)C3)CCO4)c12 (stereo not shown) [Example 23] | 100 to 500 | – | – |
| C#Cc1c(F)ccc2cc(O)cc(-c3nc4c5c(nc(OC[C@@]67CCCN6C[C@H](F)C7)nc5c3F)N([C@H]3C[C@@H]3N)CCO4)c12 [Example 16] | ≤ 100 | – | – |
| C#Cc1c(F)ccc2cc(O)cc(-c3nc4c5c(nc(OC[C@@]67CCCN6C[C@H](F)C7)nc5c3F)N(C3CC(N(C)C)C3)CCO4)c12 (stereo partly shown) [Example 26] | 100 to 500 | – | – |
| C#Cc1c(F)ccc2cc(O)cc(-c3nc4c5c(nc(OC[C@@H]6CCN(C)C6)nc5c3F)N(C(C)c3cccnc3N)[C@@H](C)CO4)c12 (single isomer, unassigned) [Example 101] | – | < 100 | The remaining amount % (T = 60 min) (0.5 mg/mL) Mouse liver microsome [1]: >60% |
| C#Cc1c(F)ccc2cc(O)cc(-c3nc4c5c(nc(OCC67CCCN6CC(F)C7)nc5c3F)N(C3CCC(N)C3)CCO4)c12 (stereo not shown) [Example 10] | 500 to 999 | – | – |
| C#Cc1c(F)ccc2cc(O)cc(-c3nc4c5c(nc(OCC67CCCN6CC(F)C7)nc5c3F)N(C3CCC(O)C3)CCO4)c12 (stereo not shown) [Example 15] | ≤ 100 | – | – |
| C#Cc1c(F)ccc2cc(O)cc(-c3nc4c5c(nc(OC[C@@]67CCCN6C[C@H](F)C7)nc5c3F)N(C[C@@H](C)N(C)C)CCO4)c12 [Example 24] | ≤ 100 | – | – |
| C#Cc1c(F)ccc2cc(O)cc(-c3nc4c5c(nc(OCC67CCCN6CC(F)C7)nc5c3F)N(C(C)C)CCO4)c12 (stereo not shown) [Example 4] | ≤ 100 | 100 to 500 | IC50 (AsPc-1 cells; [3]): 500 to 999 nM |
| C#Cc1c(F)ccc2cc(O)cc(-c3nc4c5c(nc(OCCCN(C)C)nc5c3F)N(C(C)c3cccnc3N)[C@@H](C)CO4)c12 (single isomer, unassigned) [Example 79] | – | < 100 | The remaining amount % (T = 60 min) (0.5 mg/mL) Mouse liver microsome [1]: >60% |
| C#Cc1c(F)ccc2cc(O)cc(-c3nc4c5c(nc(OCC67CCCN6CC(F)C7)nc5c3F)N(C)CCO4)c12 (stereo not shown) [Example 9] | ≤ 100 | – | – |
| C#Cc1c(F)ccc2cc(O)cc(-c3nc4c5c(nc(OCC67CCCN6CC(F)C7)nc5c3F)N(CC(C)N)CCO4)c12 (stereo not shown) [Example 13] | ≤ 100 | – | – |
| C#Cc1c(F)ccc2cc(O)cc(-c3nc4c5c(nc(OC[C@@]67CCCN6C[C@H](F)C7)nc5c3F)N(C3CCCC3)CCO4)c12 [Example 7] | ≤ 100 | – | – |
| C#Cc1c(F)ccc2cccc(-c3nc4c5c(nc(OC[C@@H]6CCCN6C)nc5c3F)N(C(C)c3cccnc3N)[C@@H](C)CO4)c12 (single isomer, unassigned) [Example 87] | – | < 100 | AUC(0-inf) [2]: 309 ng·h/mL; AUC(0-t) [2]: 266 ng·h/mL; Cmax [2]: 49 ng/mL; Tmax [2]: 15 min; half-life [2]: 220 min; MRT last [2]: 4.93 h |
| C#Cc1c(F)ccc2cc(O)cc(-c3nc4c5c(nc(OC[C@@]67CCCN6C[C@H](F)C7)nc5c3F)N(CC(F)(F)F)CCO4)c12 [Example 8] | ≤ 100 | 100 to 500 | IC50 (AsPc-1 cells; [3]): 500 to 999 nM |
| Cc1c(F)cc2[nH]ncc2c1-c1nc2c3c(nc(OC[C@@]45CCCN4C[C@H](F)C5)nc3c1F)N(C(C)c1cccnc1N)[C@@H](C)CO2 (single isomer, unassigned) [Example 85] | – | < 100 | AUC(0-inf) [2]: 214 ng·h/mL; AUC(0-t) [2]: 197 ng·h/mL; Cmax [2]: 50.2 ng/mL; Tmax [2]: 15 min; half-life [2]: 166 min; MRT last [2]: 3.4 h |
| C#Cc1c(F)ccc2cc(O)cc(-c3nc4c5c(nc(OCC67CCCN6CC(F)C7)nc5c3F)N(CC(C)N)CCO4)c12 (stereo not shown) [Example 14] | ≤ 100 | – | – |
| C#Cc1c(F)ccc2cc(O)cc(-c3nc4c5c(nc(OC[C@@]67CCCN6C[C@H](F)C7)nc5c3F)NCCO4)c12 [Example 1] | ≤ 100 | – | – |
| C#Cc1c(F)ccc2cc(O)cc(-c3nc4c5c(nc(OC[C@@]67CCCN6C[C@H](F)C7)nc5c3F)N(CC3CC3)CCO4)c12 [Example 6] | ≤ 100 | – | – |
| C#Cc1c(F)ccc2cc(O)cc(-c3nc4c5c(nc(O[C@H]6CCN(C)C6)nc5c3F)N(C(C)c3cccnc3N)[C@@H](C)CO4)c12 (single isomer, unassigned) [Example 103] | – | < 100 | The remaining amount % (T = 60 min) (0.5 mg/mL) Mouse liver microsome [1]: >60% |
| C#Cc1c(F)ccc2cc(O)cc(-c3nc4c5c(nc(OCCN(C)C)nc5c3F)N(C(C)c3cccnc3N)[C@@H](C)CO4)c12 (single isomer, unassigned) [Example 95] | – | < 100 | The remaining amount % (T = 60 min) (0.5 mg/mL) Mouse liver microsome [1]: >60% |
| C#Cc1c(F)ccc2cc(N)cc(-c3nc4c5c(nc(OCC67CCCN6CC(F)C7)nc5c3F)N(C(C)c3cccnc3N)C(C)CO4)c12 (single isomer, unassigned) [Example 54] | – | – | IC50 (AsPc-1 cells; 72 h incubation): ≤ 100 nM; IC50 (Capan-1 cells): < 100 nM |
| [2H]C([2H])(Oc1nc2c3c(nc(-c4cc(O)cc5ccc(F)c(C#C)c45)c(F)c3n1)OC[C@H](C)N2C(C)c1cccnc1N)[C@@]12CCCN1C[C@H](F)C2 (single isomer, unassigned) [Example 71] | – | < 100 | IC50 (AsPc-1 cells; [3]): ≤ 100 nM |
| CCc1c(F)ccc2cccc(-c3nc4c5c(nc(OC[C@@]67CCCN6C[C@H](F)C7)nc5c3F)N(C(C)c3cccnc3N)[C@@H](C)CO4)c12 (single isomer, unassigned) [Example 122] | – | < 100 | IC50 (AsPc-1 cells; [3]): ≤ 100 nM |
| C#Cc1c(F)ccc2cc(N)cc(-c3nc4c5c(nc(OCC67CCCN6CC(F)C7)nc5c3F)N(C(C)c3cccnc3N)C(C)CO4)c12 (single isomer, unassigned) [Example 53] | – | < 100 | IC50 (AsPc-1 cells; [3]): ≤ 100 nM |
| C#Cc1c(F)ccc2cc(O)cc(-c3nc4c5c(nc(OCC67CCCN6CC(F)C7)nc5c3F)N(CCN(C)C)CCO4)c12 (stereo not shown) [Example 2] | ≤ 100 | – | – |
